Results on 4 substances are retold here after US10844102B2, “Peptides, compositions, and methods for stimulating subcutaneous adipogenesis” (The Regents of the University of California, priority 2014, dated 2020).

Assay [1] concerns adipogenesis. The assay is described as follows: Adipogenic activity of peptides and peptide fragments, assay not specified. Format: cell-based. As to conditions: assay not specified. The method, then:
In the second approach, a series of truncations and alanine mutagenesis on peptide B were performed in order to identify the smallest active sequence. Fragments of peptide B were prepared and assayed for adipogenesis. First, fragments corresponding to the two halves of peptide B were prepared (KLKDENS (SEQ ID NO: 8) and SQLKSEVSK (SEQ ID NO: 13)).

In assay [2] the test system is rat mesenchymal stem cells. The assay is described as follows: Assay 1: adipogenesis, Oil Red O staining (transdifferentiation of fibroblast lineages into adipocytes). Format: cell-based. To be noted: for adipogenic activity in Assay 1: Assay 1, Oil Red O, concentration not given; for adipogenesis quantified by Oil Red O staining, fold change relative to the negative control: three weeks. The method, then: Reagents: (1) 3-isobutyl-1-methylxanthine (IBMX) solution: 0.5M in DMSO; (2) Insulin Solution: 10 mg/mL recombinant human insulin; (3) Dexamethasone Solution in 10 mM in ethanol; (4) Oil Red O (0.36% in 60% isopropanol).
Adipogenesis Initiation Media: mesenchymal stem cell expansion media/0.5 mM IBMX/1 μM dexamethasone. Mesenchymal stem cell expansion media is commercially available from Millipore. The IBMX Solution was diluted 1:1000 and the Dexamethasone Solution was diluted 1:10,000 in expansion media containing antibiotics and antimycotics. The prepared media was stored at 4° C.
Adipogenesis Progression Media for positive control: mesenchymal stem cell expansion media/10 μg/mL insulin. The Insulin Solution was diluted 1:1000 in the expansion media and stored at 4° C.
Experimental Adipogenesis Progression Media: mesenchymal stem cell expansion media/1-100 μg/mL RHAMM antagonist peptides.
Adipogenesis Maintenance Media: mesenchymal stem cell expansion media containing antibiotics and antimycotics.
Negative Control Media: Dulbecco's Modified Eagle's Medium (DMEM)/10% normal calf serum.
Pre-adipocyte stem cells including bone marrow mesenchymal stem cells and fibroblasts were propagated using standard tissue culture methods. Cells were trypsinized to remove the cells from the substratum. The trypsin was neutralized and cells were counted using a hemocytometer. Cells were resuspended at 20,000 cells/mL in expansion media. 1 mL of cell suspension was plated per well of 48-well plate, with several wells left empty for blank well (blank control) staining.
Cells were incubated until they reached confluency. When cells were fully confluent, the expansion media was replaced with 0.5 mL of Adipogenesis Initiation Media. For negative controls (no insulin, no peptides), expansion media only was used at this step and for subsequent media changes. For all media changes, media was replaced as gently as possible to avoid disturbing the monolayer.
Cells were incubated in Adipogenesis Initiation Media for 72 hours at 37° C., 5% CO2. 0.5 mL media was then removed from each well, and replaced with 0.5 mL of either positive control or experimental Adipogenesis Progression Media per well. Cells were again incubated for 96 hours at 37° C., 5% CO2, after which time media was replaced every 48 hours with Adipogenesis Maintenance Media (0.5 mL of media was removed from each well and replaced with 0.5 mL Adipogenesis Maintenance Media per well). Media added to empty wells served as blank controls for blank well background staining. Cells were incubated in Adipogenesis Maintenance Medium for at least 96 hours at 37° C., 5% CO2 after which time media was replaced with Adipogenesis Maintenance Medium. Lipid droplets had appeared by the time Adipogenesis Maintenance Medium was initially added and continued to accumulate and increase in size for 7-14 days. Experiments were terminated between seven and fourteen days after the initial addition of Adipogenesis Maintenance Medium.
For quantification of Oil Red O staining, media was removed and cells were washed twice with PBS, using care to gently add the PBS. Cells were then fixed in 4% paraformaldehyde (0.5 mL/well) and incubated for 30 minutes. The fixation solution was then removed and wells were washed two times with 1 mL of phosphate buffered saline (PBS) and once with 1 mL Milli-Q water. 0.25 mL Oil Red O solution was added per well of 48-well plate, including to the wells lacking cells, but containing media. Cells were incubated for 15 minutes at room temperature. The staining solution was then removed and wells were washed two times with 1 mL of Milli-Q water and once with washing solution (63% isopropanol in water).
Adipogenesis was quantified using a spectrophotometer. 0.25 mL Dye Extraction Solution (isopropyl alcohol) was added per well, and the plate was set on an orbital shaker or platform rocker for 30 minutes. […]

The subject of the next assay is dermis of aged rats. The assay is described as follows: Rat dermal skin model of adipogenesis (injection into the dermis of aged rats). Format: in vivo. As to conditions: injected into the dermis of aged rats / rat skin.
The test system of assay [3] is adipogenesis. To be noted: earlier reports, WO 2014/082042 and background; cited from earlier work.
Assay [4] has as its system human primary cells directly isolated from human subcutaneous fat or dermal tissue. The assay is described as follows: Human primary cells isolated from subcutaneous fat or dermal tissue. Format: cell-based.

“Also recorded” adds a separate entry of the source. Where two headings read alike, the source gives them in different places.

Consider KLKDENSQLK (listed as Homo sapiens), for which the adipogenic activity result in the assay on adipogenesis [1] is given as “has adipogenic activity; also recorded: are adipogenic”. Further, the “adipogenic activity in Assay 1” value in assay [2] is “exhibited activity”. In addition, the “adipogenesis quantified by Oil Red O staining, fold change relative to the negative control” value is on record as “significant increase in adipogenesis” in assay [2] (Assay 1, peptide 5 μg/ml) and “significant increase in adipogenesis” in assay [2] (Assay 1, peptide 50 μg/ml).

“KLKDENSQLR (listed as Erinaceus europaeus)”: in assay [2], the “adipogenic activity in Assay 1” value was “promising results”.

Turning to “KSEVSK (listed as Homo sapiens) [reference compound]”, the “adipogenic effects in rat skin” value in the assay with dermis of aged rats is given as “induce large fat pads”. In addition, the adipogenic activity result with adipogenesis [1] was “also found to be adipogenic”; in the assay on adipogenesis [3] it was “strongly adipogenic”. In addition, the “adipogenic activity in human primary cells” value in assay [4] is listed as “exhibited adipogenic activity”. The “specific activity among the 9-mer, 7-mer and 6-mer fragments” value in assay [2] (Assay 1) is listed as “highest specific activity”. Further, the “adipogenic activity in Assay 1” value in assay [2] was “exhibit adipogenic activity”.

As for “KTRAHHV (listed as Paenibacillus polymyxa)”, the “adipogenic activity in Assay 1” value in assay [2] is “ablated adipogenic activity”.
